ChEMBL document CHEMBL1201862, “PubChem BioAssay data set” (2004)
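Compound exposure: 48 hours, 5 concentrations, 96-well plates. Here, GI50 denotes the concentration required for 50% inhibition of growth.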 Calls of active or inactive are those of the source. Rule as the data show it: active = GI50 up to about 1.1 µM and inactive = higher.

Experiments:
Assay in all cases: NCI-60 cell line screen, 48 h
COLO 205 = tested on: COLO 205
HCC 2998 = tested on: HCC 2998
HT-29 = tested on: HT-29
OVCAR-8 = tested on: OVCAR-8
K562 = tested on: K562
HOP-62 = tested on: HOP-62
TK-10 = tested on: TK-10
RXF 393 = tested on: RXF 393
OVCAR-3 = tested on: OVCAR-3
RPMI-8226 = tested on: RPMI-8226
SF-295 = tested on: SF-295
SF-268 = tested on: SF-268
CAKI-1 = tested on: CAKI-1
PC-3 = tested on: PC-3
NCI/ADR-RES = tested on: NCI/ADR-RES
MDA-MB-231 = tested on: MDA-MB-231
Hs-578T = tested on: Hs-578T
DU-145 = tested on: DU-145

Measured: GI50

C/C(CC(=O)Nc1ccc(Cl)cc1)=N\NC(N)=S
inactive: COLO 205 23.3 µM | HCC 2998 30.9 µM | HT-29 > 100 µM | OVCAR-8 > 100 µM | K562 5.43 µM | HOP-62 67.9 µM | TK-10 > 100 µM | RXF 393 > 100 µM | OVCAR-3 > 100 µM | RPMI-8226 61.8 µM | SF-295 29 µM | SF-268 54 µM

NCCn1cnc2nc(NC(=O)c3ccccc3)[nH]c(=O)c21
inactive: COLO 205 > 100 µM | HCC 2998 > 100 µM | HT-29 > 100 µM | OVCAR-8 > 100 µM | K562 > 100 µM | HOP-62 > 100 µM | TK-10 > 100 µM | RXF 393 > 100 µM | OVCAR-3 > 100 µM | RPMI-8226 > 100 µM | SF-295 > 100 µM | SF-268 > 100 µM

CC1(c2cccc3ccccc23)OC(=O)c2ccccc21 (stereo unspecified)
inactive: CAKI-1 15 µM | COLO 205 16.2 µM | HCC 2998 15.7 µM | HT-29 20.7 µM | OVCAR-8 28.1 µM | K562 12.8 µM | HOP-62 18.3 µM | TK-10 70.6 µM | RXF 393 18.5 µM | OVCAR-3 23.5 µM | RPMI-8226 19.6 µM | SF-295 17.9 µM | SF-268 25.5 µM

O=c1c2c(nc3n1CCC3)sc1c(O)c(Br)ccc12
inactive: CAKI-1 > 100 µM | COLO 205 11.8 µM | HCC 2998 17.1 µM | HT-29 12.5 µM | OVCAR-8 10.7 µM | K562 19.3 µM | HOP-62 19.1 µM | TK-10 19.1 µM | RXF 393 29.9 µM | OVCAR-3 19.1 µM | RPMI-8226 21.3 µM | SF-295 17.3 µM | SF-268 60.4 µM

COc1ccc2c(c1OCC(=O)O)C(=O)C(CCC(=O)O)CC2 (stereo unspecified)
inactive: CAKI-1 > 100 µM | COLO 205 > 100 µM | HCC 2998 > 100 µM | HT-29 > 100 µM | OVCAR-8 > 100 µM | HOP-62 > 100 µM | TK-10 > 10 µM | RXF 393 > 100 µM | OVCAR-3 > 100 µM | RPMI-8226 > 100 µM | SF-295 > 100 µM

CC(=O)O[C@]1(C)CCC2C(C)C(=O)OC2C2C(C)[C@@H](O)CC21 (stereo partly specified)
inactive: CAKI-1 47.2 µM | COLO 205 20 µM | HCC 2998 24.6 µM | HT-29 31.5 µM | OVCAR-8 87.9 µM | K562 17.1 µM | HOP-62 19.3 µM | TK-10 42.6 µM | RXF 393 32.3 µM | OVCAR-3 12.9 µM | RPMI-8226 20.5 µM | SF-295 72.3 µM | SF-268 33.3 µM

O=C(O)CCC1(Br)CCCCC(Br)C1=O (stereo unspecified)
inactive: CAKI-1 > 100 µM | COLO 205 > 100 µM | HCC 2998 > 100 µM | HT-29 > 100 µM | OVCAR-8 > 100 µM | K562 > 100 µM | HOP-62 > 100 µM | TK-10 > 100 µM | RXF 393 85.9 µM | OVCAR-3 > 100 µM | RPMI-8226 > 100 µM | SF-295 > 100 µM | SF-268 > 100 µM

CCC(O)C1Cc2c(C)cc3c(c2O1)C(=O)c1ccccc1C3=O (stereo unspecified)
inactive: CAKI-1 24.5 µM | COLO 205 16.1 µM | HCC 2998 29.6 µM | HT-29 39.4 µM | OVCAR-8 32.4 µM | K562 29.8 µM | HOP-62 35.9 µM | TK-10 85.3 µM | OVCAR-3 29.4 µM | RPMI-8226 27.9 µM | SF-295 29.6 µM | SF-268 25.1 µM

CC(=O)Nc1ccc(C(=O)N2N=C(C)/C(=C/c3ccccc3O)C2=O)cc1
inactive: CAKI-1 > 100 µM | COLO 205 > 100 µM | HCC 2998 > 100 µM | HT-29 > 100 µM | OVCAR-8 > 100 µM | K562 > 100 µM | HOP-62 > 100 µM | TK-10 > 100 µM | OVCAR-3 > 100 µM | RPMI-8226 > 100 µM | SF-295 > 100 µM | SF-268 > 100 µM

C=CCON(C(=O)OC(C)(C)C)C(C)(C)C
inactive: PC-3 > 100 µM | CAKI-1 > 100 µM | COLO 205 > 100 µM | NCI/ADR-RES > 100 µM | HCC 2998 > 100 µM | HT-29 > 100 µM | OVCAR-8 > 100 µM | K562 > 100 µM | HOP-62 > 100 µM | TK-10 > 100 µM | RXF 393 > 100 µM | MDA-MB-231 > 100 µM | OVCAR-3 > 100 µM | RPMI-8226 > 100 µM | SF-295 > 100 µM | SF-268 > 100 µM | Hs-578T > 100 µM | DU-145 > 100 µM

CCCCCCCCCCCCCc1nnn[nH]1
inactive: COLO 205 19.4 µM | HCC 2998 18.6 µM | HT-29 18 µM | OVCAR-8 29.9 µM | HOP-62 18.2 µM | TK-10 20.6 µM | RXF 393 27.5 µM | OVCAR-3 18.3 µM | RPMI-8226 22.4 µM | SF-295 19.2 µM | SF-268 19.6 µM

C[C@]12Cc3conc3C(O)=C1CC[C@@H]1C2CC[C@@]2(C)C1CC[C@@H]2O (stereo partly specified)
inactive: CAKI-1 8.24 µM | COLO 205 32.7 µM | HT-29 19.7 µM | OVCAR-8 25.8 µM | K562 3.66 µM | HOP-62 50.4 µM | TK-10 24.3 µM | RXF 393 17.4 µM | OVCAR-3 6.22 µM | RPMI-8226 1.93 µM | SF-295 18 µM | SF-268 14.6 µM

COc1ccccc1/C=C(\C#N)C(=O)c1ccccc1
inactive: CAKI-1 > 100 µM | COLO 205 > 100 µM | HCC 2998 > 100 µM | HT-29 > 100 µM | OVCAR-8 > 100 µM | K562 > 100 µM | HOP-62 > 100 µM | OVCAR-3 > 100 µM | RPMI-8226 > 100 µM | SF-295 > 100 µM | SF-268 > 100 µM

COC(=O)NC(=O)c1cn(C2CCCCC2)c(=O)[nH]c1=O
inactive: CAKI-1 > 100 µM | COLO 205 > 100 µM | HCC 2998 > 100 µM | HT-29 > 100 µM | OVCAR-8 > 100 µM | K562 > 100 µM | HOP-62 > 100 µM | TK-10 > 100 µM | RXF 393 > 100 µM | OVCAR-3 > 100 µM | RPMI-8226 > 100 µM | SF-295 > 100 µM | SF-268 > 100 µM

CCOC(=O)c1oc2c(OC)cc(Cl)c3c2c1CCC3
inactive: COLO 205 > 100 µM | HCC 2998 > 100 µM | HT-29 > 100 µM | OVCAR-8 35.4 µM | K562 > 100 µM | TK-10 27.4 µM | RXF 393 24.2 µM | OVCAR-3 13.6 µM | RPMI-8226 > 100 µM | SF-295 58.1 µM | SF-268 > 100 µM

N/N=C(/Cc1nc2ccc(C(=O)c3ccccc3)cc2nc1O)C(=O)Nc1ccc([N+](=O)[O-])cc1[N+](=O)[O-]
inactive: CAKI-1 > 100 µM | COLO 205 > 10 µM | HCC 2998 > 10 µM | HT-29 > 10 µM | OVCAR-8 81.8 µM | K562 > 10 µM | TK-10 > 100 µM | RXF 393 > 100 µM | OVCAR-3 > 10 µM | RPMI-8226 > 10 µM | SF-295 > 10 µM | SF-268 > 10 µM

Cc1ccc(S(=O)(=O)c2ccc(N)cc2)cc1
inactive: CAKI-1 97.9 µM | HCC 2998 > 100 µM | HT-29 > 100 µM | OVCAR-8 > 100 µM | K562 > 100 µM | HOP-62 > 100 µM | TK-10 > 100 µM | RXF 393 > 100 µM | OVCAR-3 > 100 µM | RPMI-8226 > 100 µM | SF-295 > 100 µM

C/C(=N\NC(N)=O)c1sc(-c2nc(C)c(/C(C)=N/NC(N)=O)s2)nc1C
inactive: CAKI-1 > 100 µM | COLO 205 53.6 µM | HCC 2998 > 100 µM | HT-29 > 100 µM | OVCAR-8 > 100 µM | K562 53.8 µM | HOP-62 > 100 µM | TK-10 > 100 µM | RXF 393 > 100 µM | OVCAR-3 > 100 µM | RPMI-8226 > 100 µM | SF-295 > 100 µM | SF-268 > 100 µM

O=[N+]([O-])c1cc(I)cc(/C=N/NS(=O)(=O)c2ccc(Cl)cc2)c1O
inactive: CAKI-1 22.3 µM | COLO 205 18.9 µM | HCC 2998 22.1 µM | HT-29 16.3 µM | OVCAR-8 20.7 µM | K562 20 µM | HOP-62 25.6 µM | TK-10 30.8 µM | RXF 393 23.4 µM | OVCAR-3 19.1 µM | RPMI-8226 25.4 µM | SF-295 25.6 µM | SF-268 36.9 µM

CC(=O)Oc1ccc2c(=O)c(C(C)=O)coc2c1
inactive: CAKI-1 > 100 µM | COLO 205 > 100 µM | HT-29 > 100 µM | OVCAR-8 > 100 µM | K562 > 100 µM | HOP-62 > 100 µM | TK-10 > 100 µM | RXF 393 > 100 µM | OVCAR-3 > 100 µM | RPMI-8226 > 100 µM | SF-295 > 100 µM | SF-268 > 100 µM

c1nc2cscc2c2cscc12
inactive: CAKI-1 42.8 µM | HCC 2998 > 100 µM | HT-29 > 100 µM | OVCAR-8 > 100 µM | K562 > 100 µM | HOP-62 > 100 µM | TK-10 > 100 µM | RXF 393 > 100 µM | OVCAR-3 > 100 µM | RPMI-8226 > 100 µM | SF-295 > 100 µM | SF-268 > 100 µM

CC(C)(C)OC(=O)NCC(=O)OCc1ccccc1
inactive: CAKI-1 > 10 µM | COLO 205 > 100 µM | HCC 2998 > 100 µM | HT-29 > 100 µM | OVCAR-8 > 100 µM | K562 > 100 µM | HOP-62 > 100 µM | TK-10 > 100 µM | OVCAR-3 > 100 µM | SF-295 > 100 µM | SF-268 > 100 µM
